Bridge positions count the residues as written; N and C are the ends. Peptide text beside a SMILES is read from it. I, II: the chains in the order shown.
Columns and labels:
[1] = Chemical denaturation by Gdn·HCl followed by CD at 222 nm; format: physicochemical; details: 7 M Gdn·HCl in PBS pH 7.4, 3 h at room temperature, CD 222 nm (Fig. 3C)
Description: For thermal denaturation studies, the stock peptide solutions were diluted with appropriate volumes of buffer and guanidine hydrochloride.

[2] = CD spectroscopy, α-helicity; format: physicochemical; details: CD in PBS, pH 7.4, final peptide concentration 10 μM, pre-incubated 37 °C 0.5 h
Description: (§1) Lyophilized peptides were resuspended in ddH2O (pH 7.0) at a concentration of approximately 1 mg mL^–1. […] The peptides were incubated in a water bath set at 37 °C for 0.5 h before testing. CD spectra were acquired on an MOS-450 system (BioLogic, Claix, France) using the following parameters: band width, 4.0 nm; resolution, 0.1 nm; path length, 0.1 cm; response time, 4.0 s; and scanning speed, 50 nm min^–1. For CD thermal denaturation analysis, the temperature was controlled by a BioLogic TCU250 system, and CD spectra were monitored at 222 nm from 10 °C to 90 °C at a scan speed of 2 °C min^–1.
(§2) Table S1. Biophysical properties of the designed peptides a
(§3) a CD spectra of each designed peptide were monitored in PBS, pH 7.4. The final peptide concentration was 10 μM. […]

[3] = Sedimentation velocity analysis (SVA), oligomerization state; format: physicochemical; details: 150 μM in PBS (pH 7.4), 60,000 rpm, 20 °C, 280 nm; for Sedimentation coefficient: SEDFIT; for Observed molecular mass (kDa) by sedimentation analysis: SEDFIT c(M)
Description: All measurements were performed on a ProteomelabTMXL-A/XL-I analytical ultracentrifuge (Beckman Coulter, Fullerton, CA, USA) at 20 °C, as described previously. In brief, three-channel cells were used with an An-60 Tirotor. Lyophilized peptides were resuspended in ddH2O (pH 7.0) at approximately 1 mg mL^–1. The individual proteins were prepared in PBS and incubated at 37 °C for 30 min. All samples were prepared at a final concentration of 150 μM and were initially scanned at 3000 rpm for 10 min to identify the appropriate wavelength for data collection. Data were collected at 60 000 rpm at a wavelength of 280 nm. Sedimentation coefficient distribution, c(s), and molecular mass distribution, c(M), were calculated using the SEDFIT program.
Table S1. […]
Sedimentation equilibrium studies were performed at a concentration of 150 μM in PBS (pH 7.4) and a rotor speed of
60,000 rpm at 20 °C. b The theoretical molecular mass for the HR peptides in the monomeric conformation.
(§4) Table S2. Sequences of designed peptides a
(§5) a The Glu residues with a thioester side chain are underlined. Isopeptide bonds are formed between Lys-9 and Glu-14 (in […]

[4] = CD thermal denaturation (Tm); format: physicochemical; details: CD at 222 nm, 10 °C to 90 °C at 2 °C min–1, PBS pH 7.4, 10 μM peptide
Description: as §1
The samples were incubated at room temperature for 3 h before their full-range CD spectra or the ellipticities at 222 nm were recorded. For thermal denaturation studies, the stock peptide solutions were diluted with appropriate volumes of buffer and guanidine hydrochloride. Thermal denaturation was performed by monitoring the ellipticity change at 222 nm from 10 °C to 90 °C at a rate of 2 °C min^–1.
as §2, §3, §4, §5

[5] = system: HIV-1 Env-mediated cell–cell fusion; details: read-out: EC50 (nM) for inhibiting cell–cell fusion; HL2/3 and TZM-bl cells coincubated 6–8 h at 37 °C, luciferase read-out; triplicate, mean ± standard deviation
Description: Cell–cell fusion assays were performed as described previously.[26] HL2/3 cells, which stably express HIV Gag, Env, Tat, Rev, and Nef proteins, as well as TZM-bl cells, which stably express large amounts of CD4 and CCR5, were obtained from the NIH AIDS Reference and Reagent Program (contributed by Drs Barbara Felber and George Pavlakis and Drs John C. Kappes and Xiaoyun Wu, respectively). TZM-bl cells (2.5 × 10^4 per well) and HL2/3 cells (7.5 × 10^4 per well) were coincubated in 96-well plates (Corning Costar) at 37 °C in 5% CO2 in the presence of different concentrations of inhibitors. After incubation for 6–8 h, the medium was aspirated, the cells were washed and lysed, and luciferase activity was measured using the Luciferase Assay System (Promega, Madison, WI) on a SpectraMax M5 plate reader (Molecular Devices, Sunnyvale, CA).

HIV-1IIIB = HIV-1IIIB infection assay (MT-2 cells, p24 ELISA); format: cell-based; details: 100 TCID50, p24 ELISA on fourth day post-infection, triplicate, mean ± standard deviation, read-out: EC50 (nM) for inhibiting HIV–1IIIB infection
From the text: (§6) To measure the inhibitory activity of the peptides on infection of HIV-1IIIB and HIV-1BaL, 1 × 10^4 MT-2 cells and TZM-b1 cells, respectively, were infected with 100 times the median tissue culture infective dose of a virus in the presence or absence of the peptides at graded concentrations. On the fourth day post-infection, the culture supernatants were collected for detection of p24 antigen using an enzyme-linked immunosorbent assay (ELISA). The percent inhibition by the peptides and EC50 values was calculated using Calcusyn software.[27]

HIV-1BaL = HIV-1BaL infection assay (TZM-b1 cells, p24 ELISA); format: cell-based; details: 100 TCID50, p24 ELISA on fourth day post-infection, triplicate, mean ± standard deviation, read-out: EC50 (nM) for inhibiting HIV-1BaL infection
From the text: as §6

[6] = rat (Sprague-Dawley, three pooled) liver homogenate, 4 mL Tris–HCl 50 mM pH 7.4 per g, 9,000g supernatant, peptide 10 μg/mL, LC-MS/MS (SIM) (Fig. 4B)
Description: (§7) Qualification assay. Chromatographic analyses were performed using an ODS-C8 column (5 μm, 100 mm × 2.0mm ID) kept at ambient temperature. The mobile phase was composed of acetonitrile-water-formic acid in the ratio of 60:40:0.1 (v/v/v) at a flow rate of 0.3 mL/min. The sample injection volume was 10 μL. Acetonitrile was HPLC grade, and other chemical reagents and solvents were analytical grade. A Thermo TSQ Quantum Discovery MAX triple–quadruple tandem mass spectrometer equipped with ESI source (San Jose, CA) and Surveyor LC pump were used for LC-MS/MS analysis. Data acquisition and data processing were performed by using Xcalibur software and LCQuan 2.0 data analysis program (Thermo Finnigan), respectively. Optimized MS parameters were as below: 4800 V spray voltage, 10.0 psi sheath gas pressure, 1.0 psi auxiliary valve flow, and 300 °C of capillary temperature. When running collision-induced dissociation (CID), the pressure was set to 1.5 mTorr. The selected ion monitoring (SIM) mode was preformed for T20
(§8) Preparation of Samples. By use of a simple protein precipitation method, a test compound was extracted from liver
(§9) homogenate and 20 ng/mL proteinase K in PBS, respectively. Samples for standard curves were prepared by spiking 50
(§10) μL of rat liver homogenate or 20 ng/mL proteinase K with 100 μL of various concentrations of each test compound
(§11) ranging from 0.1－5 μg/mL in ethanol. […]

proteinase K = proteinase K (Parengyodontium album, UniProt P06873); details: 20 ng/mL proteinase K in PBS, peptide 10 μg/mL, LC-MS/MS (SIM) (Fig. 4A)
Sequence of proteinase K (P06873 106-384): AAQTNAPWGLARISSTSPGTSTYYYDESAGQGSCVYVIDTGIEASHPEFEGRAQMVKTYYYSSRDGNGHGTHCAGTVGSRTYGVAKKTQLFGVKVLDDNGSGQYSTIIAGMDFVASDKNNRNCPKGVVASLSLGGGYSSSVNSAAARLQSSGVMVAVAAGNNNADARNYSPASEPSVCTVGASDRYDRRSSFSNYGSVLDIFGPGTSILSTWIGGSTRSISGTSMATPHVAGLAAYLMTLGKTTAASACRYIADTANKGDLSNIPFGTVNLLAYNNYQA
Description: as §7, §8, §9, §10, §11

Row | Compound | [θ]G/[θ]0 ([θ]222 with Gdn·HCl vs. without) / resistance to Gdn·HCl unfolding [1] | Helicity (%) [2] [%] | Sedimentation coefficient [3] [s] | Observed molecular mass (kDa) by sedimentation analysis [3] [kDa] | Tm (°C) [4] | EC50 [5] [nM] | EC50 (HIV-1IIIB) [nM] | EC50 (HIV-1BaL) [nM] | proteolytic stability in liver homogenate, compared with T20 [6] | proteolytic stability in proteinase K, compared with T20 (proteinase K)
1 | CC[C@H](C)[C@H](NC(=O)[C@H](CCC(N)=O)NC(=O)[C@H](CCC(N)=O)NC(=O)[C@@H](NC(=O)[C@H](CCCNC(=N)N)NC(=O)[C@H](CCC(N)=O)NC(=O)[C@H](CCC(=O)O)NC(=O)[C@@H](NC(=O)[C@H](Cc1c[nH]cn1)NC(=O)[C@H](Cc1c[nH]cn1)NC(=O)[C@@H](NC(=O)[C@H](CCCCN)NC(=O)[C@H](CCC(N)=O)NC(=O)[C@H](CCC(=O)O)NC(=O)[C@@H](NC(=O)[C@H](CCC(N)=O)NC(=O)[C@H](CCC(N)=O)NC(=O)[C@@H](NC(=O)[C@H](CCCNC(=N)N)NC(=O)[C@H](Cc1c[nH]c2ccccc12)NC(C)=O)[C@@H](C)CC)[C@@H](C)CC)[C@@H](C)CC)[C@@H](C)CC)[C@@H](C)CC)C(=O)N[C@@H](CCC(=O)O)C(=O)N[C@@H](CCC(N)=O)C(N)=O [Compound 3HR] (Ac-WRIQQIEQKIHHIEQRIQQIEQ-NH2) | completely lost its tertiary structure | 46.4 | 1.2 | 9.9 | 44 °C | – | – | – | – | –
2 | CC[C@H](C)[C@H](NC(=O)[C@H](CCC(N)=O)NC(=O)[C@H](CCC(N)=O)NC(=O)[C@@H](NC(=O)[C@H](CCCNC(=N)N)NC(=O)[C@H](CCC(N)=O)NC(=O)[C@H](CCC(=O)O)NC(=O)[C@@H](NC(=O)[C@H](CCC(N)=O)NC(=O)[C@H](CCC(N)=O)NC(=O)[C@@H](NC(=O)[C@H](CCCNC(=N)N)NC(=O)[C@H](CCC(N)=O)NC(=O)[C@H](CCC(=O)O)NC(=O)[C@@H](NC(=O)[C@H](Cc1c[nH]cn1)NC(=O)[C@H](Cc1c[nH]cn1)NC(=O)[C@@H](NC(=O)[C@H](CCCCN)NC(=O)[C@H](CCC(N)=O)NC(=O)[C@H](CCC(=O)O)NC(=O)[C@@H](NC(=O)[C@H](CCC(N)=O)NC(=O)[C@H](CCC(N)=O)NC(=O)[C@@H](NC(=O)[C@H](CCCNC(=N)N)NC(=O)[C@H](Cc1c[nH]c2ccccc12)NC(C)=O)[C@@H](C)CC)[C@@H](C)CC)[C@@H](C)CC)[C@@H](C)CC)[C@@H](C)CC)[C@@H](C)CC)[C@@H](C)CC)C(=O)N[C@@H](CCC(=O)O)C(=O)N[C@@H](CCC(N)=O)C(N)=O [Compound 4HR] (Ac-WRIQQIEQKIHHIEQRIQQIEQRIQQIEQ-NH2) | ~0.2 | 99.5 | 1.3 | 10.5 | higher than 90 °C | – | – | – | – | –
3 | CC[C@H](C)[C@H](NC(C)=O)C(=O)N[C@@H](CCC(=O)O)C(=O)N[C@@H](C)C(=O)N[C@@H](CCC(N)=O)C(=O)N[C@@H](CCC(N)=O)C(=O)N[C@@H](Cc1c[nH]cn1)C(=O)N[C@@H](CC(C)C)C(=O)N[C@@H](CC(C)C)C(=O)N[C@@H](CCC(N)=O)C(=O)N[C@@H](CC(C)C)C(=O)N[C@H](C(=O)N[C@H](C(=O)N[C@@H](Cc1c[nH]c2ccccc12)C(=O)NCC(=O)N[C@H](C(=O)N[C@@H](CCCCN)C(=O)N[C@@H](CCC(N)=O)C(=O)N[C@@H](CC(C)C)C(=O)N[C@@H](CCC(N)=O)C(=O)N[C@@H](C)C(=O)N[C@@H](CCCNC(=N)N)C(=O)N[C@H](C(=O)N[C@@H](CC(C)C)C(N)=O)[C@@H](C)CC)[C@@H](C)CC)C(C)C)[C@@H](C)O [Compound N23, reference compound] (Ac-IEAQQHLLQLTVWGIKQLQARIL-NH2) | – | 16.8 | – | – | not detected | > 5000 | > 10000 | > 10000 | – | –
4 | I: Ac-WRIQQIEQKIHHIEQRIQQIEQ-NH2 / II: Ac-WRIQQIEQKIHHIEQRIQQIEQ-NH2 / III: Ac-WRIQQIEQKIHHIEQRIQQIEQ-NH2 (amide I:9-III:14, I:14-II:9, II:14-III:9) [(3HR)3] | almost unbreakable | 83.4 | 1.2 | 9.2 | higher than 90 °C | > 5000 | > 10000 | > 10000 | – | –
5 | I: Ac-WRIQQIEQKIHHIEQRIQQIEQRIQQIEQ-NH2 / II: Ac-WRIQQIEQKIHHIEQRIQQIEQRIQQIEQ-NH2 / III: Ac-WRIQQIEQKIHHIEQRIQQIEQRIQQIEQ-NH2 (amide I:9-III:14, I:14-II:9, II:14-III:9) [(4HR)3] | almost unbreakable | – | 1.5 | 13.3 | higher than 90 °C | > 5000 | > 10000 | > 10000 | – | –
6 | W RIQQIEQ KI HHIE Q RIQQIEQ RIEAQQH LLQLTVW GIKQLQA RIL (sidechain bridge or staple) [(3HRN23)3] | – | 89.6 | 1.6 | 17.3 | > 90 °C | 10.2 ± 0.9 | 21.3 ± 1.8 | 58.2 ± 1.5 | much more resistant than T20 | much more resistant than T20

— publication PMC6054081, “De novo design of isopeptide bond-tethered triple-stranded coiled coils with exceptional resistance to unfolding and proteolysis: implication for developing antiviral therapeutics” (Chemical Science, 2015)
